Here are results for one molecule from PubChem BioAssay AID504934 (The Scripps Research Institute Molecular Screening Center, 2011).

Calls of active or inactive are those of the source. The rule behind the calls is not given here.

What all share (assay): PubChem AID 504934
One assay deals with VP16 Control Plasmid. The conditions noted are these: nuclear receptor panel Gal4 luciferase reporter, at 10 µM.
For another assay, the system named is Nur77. The following applies: nuclear receptor panel Gal4 luciferase reporter, at 10 µM.
The subject of another assay is ERRa. The following applies: nuclear receptor panel Gal4 luciferase reporter, at 10 µM.
For assay [1], the target named is Retinoic acid receptor RXR-beta (Homo sapiens) (UniProt P28702). The conditions noted are these: nuclear receptor panel Gal4 luciferase reporter, RXRb, at 10 µM.
Chain of Retinoic acid receptor RXR-beta (Homo sapiens) (P28702 whole entry, looked up, the tested form may be a part): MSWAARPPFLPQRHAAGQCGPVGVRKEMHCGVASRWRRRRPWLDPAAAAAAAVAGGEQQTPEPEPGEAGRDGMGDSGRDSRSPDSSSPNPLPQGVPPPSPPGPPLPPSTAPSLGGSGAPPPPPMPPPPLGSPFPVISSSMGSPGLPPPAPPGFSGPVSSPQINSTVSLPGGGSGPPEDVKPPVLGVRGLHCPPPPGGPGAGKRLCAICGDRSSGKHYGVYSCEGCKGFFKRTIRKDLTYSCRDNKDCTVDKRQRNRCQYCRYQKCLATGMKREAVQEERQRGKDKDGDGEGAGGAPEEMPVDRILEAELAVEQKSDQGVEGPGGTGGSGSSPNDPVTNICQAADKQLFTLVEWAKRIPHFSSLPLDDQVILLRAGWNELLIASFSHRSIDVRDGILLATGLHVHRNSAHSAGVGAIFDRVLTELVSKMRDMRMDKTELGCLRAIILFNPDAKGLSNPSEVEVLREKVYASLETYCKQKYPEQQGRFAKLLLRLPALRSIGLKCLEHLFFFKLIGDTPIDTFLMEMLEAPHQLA

In the case of `O=c1cc(N2CCN(c3cccc(Cl)c3)CC2)[nH]c(=O)n1C1CCCCC1`, the fold change in the assay on VP16 Control Plasmid was 0.82 (inactive); with Nur77, 0.72; in the assay with ERRa it was 1.34; in assay [1], 0.78.
